Measurements as given in ChEMBL document CHEMBL5365420, “Kinetics, Thermodynamics, and Structural Effects of Quinoline-2-Carboxylates, Zinc-Binding Inhibitors of New Delhi Metallo-β-lactamase-1 Re-sensitizing Multidrug-Resistant Bacteria for Carbapenems” (J Med Chem, 2023).
One block for each molecule: values may come before it.

How the values were obtained:
[1] = biological target: Metallo-beta-lactamase type 2 (Bacteria, UniProt C7C422)
Description: Inhibition of C-terminal 6His-tagged full length NDM-1 (unknown origin) expressed in Escherichia coli BL21-DE3 using nitrocefin as substrate incubated for 15 mins followed by substrate addition by absorbance based microplate reader analysis

[2] = biological target: Histone deacetylase 1 (Homo sapiens) (UniProt Q13547); test: Inhibition of C-terminal 6His/FLAG-tagged human recombinant full-length HDAC1 (1 to 482(end) residues) at 10 uM using Boc-Lys-(Ac)-AMC as substrate incubated for 10 mins followed by substrate addition measured after 1 hr by fluorescence based analysis relative to control; details: time 70.0 min
[3] = biological target: T1, 72 kDa type IV collagenase (Homo sapiens, UniProt P08253); test: Inhibition of human recombinant MMP-2 CD at 10 uM using OMNIMMP as substrate incubated for 30 mins by fluorescence based analysis relative to control
Target sequence in this assay (P08253 110-660 limits assumed): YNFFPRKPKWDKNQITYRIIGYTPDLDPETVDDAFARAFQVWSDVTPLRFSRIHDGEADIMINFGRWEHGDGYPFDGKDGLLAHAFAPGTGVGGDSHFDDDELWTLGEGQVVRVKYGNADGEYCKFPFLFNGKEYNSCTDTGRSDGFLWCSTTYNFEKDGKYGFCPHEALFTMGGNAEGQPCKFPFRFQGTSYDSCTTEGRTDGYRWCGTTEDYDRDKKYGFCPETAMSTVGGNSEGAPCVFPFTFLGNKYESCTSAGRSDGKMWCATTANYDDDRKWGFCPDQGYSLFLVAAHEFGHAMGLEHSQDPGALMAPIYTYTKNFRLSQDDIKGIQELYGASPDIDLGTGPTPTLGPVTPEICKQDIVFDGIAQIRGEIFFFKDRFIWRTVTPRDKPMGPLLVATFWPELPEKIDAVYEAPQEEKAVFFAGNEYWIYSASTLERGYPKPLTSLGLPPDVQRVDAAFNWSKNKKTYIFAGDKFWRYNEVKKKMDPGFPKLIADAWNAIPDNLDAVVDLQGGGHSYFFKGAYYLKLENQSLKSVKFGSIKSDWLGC

[4] = biological target: Carbonic anhydrase 2 (Homo sapiens) (UniProt P00918); test: Inhibition of human CA2 at 10 uM using pNPA as substrate preincubated for 15 mins followed by substrate by absorbance based analysis relative to control
[5] = Inhibition of IMP-1 (unknown origin) expressed in Escherichia coli BL21-DE3 incubated for 15 mins by absorbance based microplate reader analysis; design: species or system Bacteria
[6] = Inhibition of GIM1 (unknown origin) incubated for 15 mins by absorbance based microplate reader analysis; design: species or system Bacteria
[7] = Inhibition of VIM-2 (unknown origin) incubated for 15 mins by absorbance based microplate reader analysis; design: species or system Bacteria
[8] = biological target: T1, 72 kDa type IV collagenase; test: Binding affinity to human recombinant MMP-2 CD assessed as inhibition constant using OMNIMMP as substrate incubated for 30 mins by fluorescence based analysis
Target sequence in this assay (P08253 whole entry): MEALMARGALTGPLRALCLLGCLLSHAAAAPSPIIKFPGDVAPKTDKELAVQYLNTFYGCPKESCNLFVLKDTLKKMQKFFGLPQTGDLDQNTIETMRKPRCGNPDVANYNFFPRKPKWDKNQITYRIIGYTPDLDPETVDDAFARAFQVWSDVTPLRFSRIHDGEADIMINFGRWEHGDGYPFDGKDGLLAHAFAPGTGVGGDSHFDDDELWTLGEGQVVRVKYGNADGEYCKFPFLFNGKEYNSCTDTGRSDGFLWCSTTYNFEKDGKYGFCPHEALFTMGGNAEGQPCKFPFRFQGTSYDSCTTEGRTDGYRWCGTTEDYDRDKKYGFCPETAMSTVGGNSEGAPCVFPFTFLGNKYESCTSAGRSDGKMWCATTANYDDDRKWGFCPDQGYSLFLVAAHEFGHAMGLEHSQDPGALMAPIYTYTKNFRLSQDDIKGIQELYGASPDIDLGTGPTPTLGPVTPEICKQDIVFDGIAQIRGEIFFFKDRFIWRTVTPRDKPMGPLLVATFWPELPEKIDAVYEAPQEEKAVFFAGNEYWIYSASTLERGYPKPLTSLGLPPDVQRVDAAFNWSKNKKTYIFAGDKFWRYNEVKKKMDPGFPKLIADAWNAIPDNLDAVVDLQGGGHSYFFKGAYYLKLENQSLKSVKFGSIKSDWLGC

[9] = Selectivity ratio of Ki for human recombinant MMP-2 CD to Ki for C-terminal 6His-tagged full length NDM-1 (unknown origin)

Sequence of Metallo-beta-lactamase type 2 (C7C422 whole entry): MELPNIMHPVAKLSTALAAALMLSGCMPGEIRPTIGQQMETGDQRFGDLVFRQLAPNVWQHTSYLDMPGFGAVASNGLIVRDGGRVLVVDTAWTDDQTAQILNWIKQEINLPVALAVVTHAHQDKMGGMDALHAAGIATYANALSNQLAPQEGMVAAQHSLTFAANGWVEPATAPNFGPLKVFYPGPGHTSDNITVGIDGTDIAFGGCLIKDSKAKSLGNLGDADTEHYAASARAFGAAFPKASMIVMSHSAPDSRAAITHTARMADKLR
Sequence of Histone deacetylase 1 (Homo sapiens) (Q13547 whole entry): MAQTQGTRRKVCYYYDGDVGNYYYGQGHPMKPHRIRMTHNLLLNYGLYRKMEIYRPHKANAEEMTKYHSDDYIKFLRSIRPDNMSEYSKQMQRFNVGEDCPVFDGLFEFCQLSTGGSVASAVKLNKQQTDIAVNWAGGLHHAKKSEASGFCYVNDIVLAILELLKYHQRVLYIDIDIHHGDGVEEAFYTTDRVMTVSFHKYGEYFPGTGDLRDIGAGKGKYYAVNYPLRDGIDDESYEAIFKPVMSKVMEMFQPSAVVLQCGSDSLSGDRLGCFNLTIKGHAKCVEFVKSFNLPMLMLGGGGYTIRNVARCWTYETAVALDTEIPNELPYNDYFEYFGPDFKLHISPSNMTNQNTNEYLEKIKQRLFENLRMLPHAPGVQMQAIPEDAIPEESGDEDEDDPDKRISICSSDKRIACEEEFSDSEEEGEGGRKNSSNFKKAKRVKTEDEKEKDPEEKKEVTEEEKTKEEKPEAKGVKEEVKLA

Compound: CON(C)C(=O)c1ccccn1
- IC50 [1]: > 2000 µM

Compound: CS(=O)(=O)Nc1ccc(I)c2ccc(C(=O)O)nc12
- inhibition [2]: < 5%
- inhibition [3]: 94%
- inhibition [4]: < 5%
- IC50 [1]: 1.4 µM

Compound: CONC(=O)c1ccc2cccc(O)c2n1
- IC50 [1]: 13.7 µM

Compound: CS(=O)(=O)Nc1ccc(-c2cccc(N)c2)c2ccc(C(=O)O)nc12
- inhibition [2]: < 5%
- inhibition [3]: 95%
- inhibition [4]: < 5%
- IC50 [1]: 2.1 µM

Compound: Oc1cccc2ccc(-c3ccccc3)nc12
- IC50 [1]: > 1000 µM

Compound: CONC(=O)c1ccccn1
- IC50 [1]: 1240 µM

Compound: O=C(NO)c1cccc(C(=O)NO)n1
- IC50 [1]: > 1000 µM

Compound: Cc1ccc(S(=O)(=O)Nc2cccc3ccc(C(=O)O)nc23)cc1
- IC50 [1]: 1.41 µM

Compound: COC(=O)c1ccc2cccc(NS(C)(=O)=O)c2n1
- IC50 [1]: 17.6 µM

Compound: O=C(O)c1cccc(C(=O)NOCc2ccccc2)n1
- IC50 [1]: 22.7 µM

Compound: Cc1ccc2cccc(O)c2n1 [8-HYDROXY QUINALDINE]
- IC50 [1]: 274 µM

Compound: O=C(O)c1ccccn1 [2-PICOLINIC ACID]
- IC50 [1]: 303 µM

Compound: O=C(NOCc1ccccc1)c1ccccn1
- IC50 [1]: 530 µM

Compound: CS(=O)(=O)Nc1c(Cl)cc(Cl)c2ccc(C(=O)O)nc12
- IC50 [1]: > 1000 µM

Compound: C[C@H](CS)C(=O)N1CCC[C@H]1C(=O)O
- inhibition [2]: < 5%
- inhibition [3]: < 5%
- inhibition [4]: < 5%

Compound: Oc1c(I)cc(I)c2cccnc12 [IODOQUINOL]
- IC50 [1]: 2.5 µM

Compound: CONC(=O)c1cccc(C(=O)NOC)n1
- IC50 [1]: 84.3 µM

Compound: O=S(=O)(Nc1cccc2cccnc12)c1cccc(F)c1
- IC50 [1]: 6.2 µM

Compound: Cc1ccc2cccc(NS(=O)(=O)c3ccccc3)c2n1
- IC50 [1]: 1.6 µM

Compound: O=C(O)c1ccc2cccc(O)c2n1
- inhibition [2]: < 5%
- inhibition [3]: < 5%
- IC50 [5]: 10.3 µM
- IC50 [6]: 7.38 µM
- IC50 [7]: 0.61 µM
- inhibition [4]: < 5%
- IC50 [1]: 9.1 µM

Compound: O=C(O)c1ccc2c(I)cc(I)c(NS(=O)(=O)c3ccccc3)c2n1
- IC50 [1]: > 1000 µM

Compound: O=C(O)c1cccc(C(=O)O)n1 [DIPICOLINIC ACID]
- inhibition [2]: < 5%
- inhibition [3]: < 5%
- IC50 [5]: 9.75 µM
- IC50 [6]: 15.6 µM
- IC50 [7]: 0.45 µM
- inhibition [4]: < 5%
- IC50 [1]: 7 µM

Compound: CS(=O)(=O)Nc1cccc2c(Cl)cc(C(=O)O)nc12
- inhibition [2]: < 5%
- inhibition [3]: 90%
- IC50 [5]: 8.11 µM
- IC50 [6]: 21.1 µM
- IC50 [7]: 0.47 µM
- inhibition [4]: < 5%
- IC50 [1]: 1 µM

Compound: Cc1ccc2cccc(NS(=O)(=O)c3cccc(F)c3)c2n1
- IC50 [1]: 1.4 µM

Compound: O=C([O-])CN(CCN(CC(=O)[O-])CC(=O)O)CC(=O)O.[Na+].[Na+]
- inhibition [2]: < 5%
- inhibition [3]: 23%
- inhibition [4]: < 5%

Compound: O=C(O)c1ccc2cccc(NS(=O)(=O)Cc3ccccc3)c2n1
- IC50 [1]: 1.28 µM

Compound: CONC(=O)c1cccc(C(=O)O)n1
- IC50 [1]: 27.8 µM

Compound: O=C(NOCc1ccccc1)c1ccc2c(Br)cc(Br)c(O)c2n1
- IC50 [1]: 1.47 µM

Compound: O=C(NOCc1ccccc1)c1cccc(C(=O)NOCc2ccccc2)n1
- inhibition [2]: < 5%
- inhibition [3]: < 5%
- IC50 [5]: 102 µM
- inhibition [4]: < 5%
- IC50 [1]: 7.2 µM

Compound: COC(=O)c1ccc2cccc(NS(=O)(=O)c3cccc(F)c3)c2n1
- IC50 [1]: 1.7 µM

Compound: CS(=O)(=O)Nc1cc(Cl)c(Cl)c2ccc(C(=O)O)nc12
- inhibition [2]: < 5%
- inhibition [3]: 91%
- IC50 [5]: 5.23 µM
- IC50 [6]: 11.2 µM
- IC50 [7]: 0.47 µM
- inhibition [4]: < 5%
- IC50 [1]: 0.95 µM

Compound: O=C(NOCc1ccccc1)c1ccc2cccc(O)c2n1
- IC50 [5]: 25.2 µM
- IC50 [1]: 11.2 µM

Further molecules by falling IC50 [1], results first:

- IC50 [1]: 0.9 µM
Compound: O=C(O)c1ccc2cccc(NS(=O)(=O)C(F)(F)F)c2n1

- inhibition [3]: > 90%
- Ki [8]: 20.7 µM
- Ratio Ki [9]: 50
- IC50 [1]: 0.83 µM
Compound: O=C(O)c1ccc2cccc(NS(=O)(=O)c3cccc4cccnc34)c2n1

- IC50 [1]: 0.75 µM
Compound: COC(=O)c1ccc2cccc(NS(=O)(=O)c3ccc(C(F)(F)F)cc3)c2n1

- IC50 [1]: 0.71 µM
Compound: CS(=O)(=O)Nc1cccc2c(-c3cccc(N)c3)cc(C(=O)O)nc12

- inhibition [2]: < 5%
- inhibition [3]: > 90%
- IC50 [5]: 1.22 µM
- IC50 [6]: 3.07 µM
- IC50 [7]: 0.43 µM
- Ki [8]: 2.12 µM
- inhibition [4]: < 5%
- Ratio Ki [9]: 6
- IC50 [1]: 0.71 µM
Compound: O=C(O)c1ccc2cccc(NS(=O)(=O)c3ccccc3)c2n1

- IC50 [1]: 0.68 µM
Compound: O=C(O)c1ccc2cccc(NS(=O)(=O)c3cccc(F)c3)c2n1

- IC50 [1]: 0.56 µM
Compound: O=C(O)c1ccc2cccc(NS(=O)(=O)c3cccc([N+](=O)[O-])c3)c2n1

- inhibition [2]: < 5%
- inhibition [3]: 20%
- IC50 [5]: 0.48 µM
- IC50 [6]: 1.26 µM
- IC50 [7]: 0.16 µM
- inhibition [4]: < 5%
- IC50 [1]: 0.54 µM
Compound: O=C(O)c1ccc2c(Cl)cc(Cl)c(O)c2n1

- IC50 [1]: 0.52 µM
Compound: O=C(O)c1ccc2c(Cl)c(Cl)cc(NS(=O)(=O)c3ccccn3)c2n1

- IC50 [1]: 0.5 µM
Compound: O=C(O)c1ccc2cccc(NS(=O)(=O)c3cccc(Cl)c3)c2n1

- IC50 [1]: 0.48 µM
Compound: O=C(O)c1ccc2c(Cl)cc(I)c(O)c2n1

- IC50 [1]: 0.47 µM
Compound: N#Cc1ccccc1S(=O)(=O)Nc1cccc2ccc(C(=O)O)nc12

- IC50 [1]: 0.46 µM
Compound: O=C(O)c1ccc2c(Br)cc(Br)c(O)c2n1

- IC50 [1]: 0.45 µM
Compound: O=C(O)c1ccc2cccc(NS(=O)(=O)c3ccc(Cl)cc3)c2n1

- IC50 [1]: 0.44 µM
Compound: O=C(O)c1ccc2cccc(NS(=O)(=O)c3c(Cl)cc(Cl)cc3Cl)c2n1

- IC50 [1]: 0.44 µM
Compound: O=C(O)c1ccc2cccc(NS(=O)(=O)c3ccccc3Cl)c2n1

- inhibition [2]: < 5%
- inhibition [3]: > 90%
- Ki [8]: 27.6 µM
- inhibition [4]: < 5%
- Ratio Ki [9]: 135
- IC50 [1]: 0.41 µM
Compound: O=C(O)c1ccc2ccc3c(c2n1)NS(=O)(=O)c1ccc(C(F)(F)F)cc1-3

- IC50 [1]: 0.37 µM
Compound: O=C(O)c1cc(-c2cccc(F)c2)c2cccc(NS(=O)(=O)c3ccccn3)c2n1

- inhibition [2]: < 5%
- inhibition [3]: > 90%
- IC50 [5]: 0.24 µM
- IC50 [6]: 1.5 µM
- IC50 [7]: 0.38 µM
- Ki [8]: 0.6 µM
- inhibition [4]: < 5%
- Ratio Ki [9]: 3
- IC50 [1]: 0.37 µM
Compound: O=C(O)c1ccc2cccc(NS(=O)(=O)c3ccc(C(F)(F)F)cc3[N+](=O)[O-])c2n1

- inhibition [2]: < 5%
- inhibition [3]: 5%
- inhibition [4]: < 5%
- IC50 [1]: 0.3 µM
Compound: O=C(O)c1ccc2c(I)cc(I)c(O)c2n1

- IC50 [1]: 0.29 µM
Compound: O=C(O)c1ccc2c(Cl)ccc(NS(=O)(=O)c3ccccn3)c2n1

- IC50 [1]: 0.28 µM
Compound: O=C(O)c1cc(Cl)c2cccc(NS(=O)(=O)c3ccccn3)c2n1

- IC50 [1]: 0.25 µM
Compound: Nc1cccc(-c2cc(C(=O)O)nc3c(NS(=O)(=O)c4ccccn4)cccc23)c1
